Measured values reported in patent publication US10010561B2, “Method of treating cancer using high efficiency self-illuminative nanocomplexes and method of manufacturing the same” (Research & Business Foundation Sungkyunkwan University, priority 2014, dated 2018).
{SH} = thiol linker

How the values were obtained:
[1] = doxorubicin capture in linear nucleic acid, doxorubicin autofluorescence; format: physicochemical; settings: room temperature, 24 hours; linear nucleic acid:doxorubicin 1:1 to 1:20; FIG. 5
Description: To contain doxorubicin in a new nucleic acid-based functional anticancer drug, linear nucleic acids represented by SEQ. ID. NO: 2 ([NT]) and SEQ. ID. NO: 3 (5'-/thiol/[NT]3') were used. To prepare a doxorubicin-binding linear nucleic acid, the linear nucleic acid and doxorubicin were mixed with various concentrations (linear nucleic acid:doxorubicin=1:1 to 1:20) and reacted at room temperature for 24 hours, and autofluorescence of the doxorubicin was detected.

[2] = luminescence activity of m-Rluc8 compared with wild-type luciferase; format: biochemical; settings: versus wild-type luciferase purified by the same method; FIG. 2
Source text: To obtain a high efficiency self-luminescent light source, a modified self-illuminative protein (m-Rluc8) in which artificial mutation occurred on an amino acid sequence of a wild-type luciferase was expressed in E. coli and purified. That is, an expression vector (m-Rluc8_pPAL7) into which the modified self-illuminative protein (m-Rluc8) consisting of an amino acid sequence (SEQ. ID. NO: 1) shown in FIG. 1 was inserted was manufactured, transformed into and expressed in E. coli BL21 strain cells and then purified, thereby obtaining a high purity modified self-illuminative protein (m-Rluc8).

Molecule | maximum doxorubicin binding to 1 μM linear nucleic acid [1] [µM] | luminescence activity relative to wild-type luciferase [2]
linear nucleic acid (DNA GTCGCAGGCACATCAGTACAGCCAGATCCGTACCTACTCG; DNA, 5' {SH}, backbone and methylation of C not given here; conjugated to gold) | 10 | –
m-Rluc8: modified self-illuminative protein of SEQ. ID. NO: 1, wild-type Renilla luciferase mutated at 8 sites (protein, Renilla luciferase, ID; NO: 1, wild-type Renilla luciferase mutated at 8 sites) MASKVYDPEQRKRMITGPQWWARCKQMNVLDSFINYYDSEKHAENAVIFLHGNATSSYLWRHVVPHIEPVARCIIPDLIGMGKSGKSGNGSYRLLDHYKYLTAWFELLNLPKKIIFVGHDWGAALAFHYAYEHQDRIKAIVHMESVVDVIESWDEWPDIEEDIALIKSEEGEKMVLENNFFVETVLPSKIMRKLEPEEFAAYLEPFKEKGEVRRPTLSWPREIPLVKGGKPDVVQIVRNYNAYLRASDDLPKLFIESDPGFFSNAIVEGAKKFPNTEFVKVKGLHFLQEDAPDEMGKYIKSFVERVLKNEQ | – | more than 5.65 fold
